Each compound was assayed on wild-type HIV-1 strain IIIB (assay: microbe, parasite or virus in culture). Details: not given.
Format: cell-based
Set-up: scale not given here
`CCOP(=O)(COc1ccc(C[C@H](NC(=O)O[C@H]2CO[C@H]3OCC[C@H]32)[C@H](O)CN(CC(C)C)S(=O)(=O)c2ccc([N+](=O)[O-])cc2)cc1)OCC` was tested, and the “EC50 (nM)” value was “+ +”. In the case of `CCOP(=O)(CCNCc1ccc(CC(NC(=O)OC2COC3OCCC23)C(O)CN(CC(C)C)S(=O)(=O)c2ccc(OC)cc2)cc1)OCC` (stereo not drawn) [drawing 619 R1=Et R2=Et], the EC50 is reported as “+ + +”.

Same assay, conditions: Human immunodeficiency virus 1, IIIB
With `COc1ccc(S(=O)(=O)N(CC2CCNCC2)CC(O)C(Cc2ccc(O)cc2)NC(=O)OC2COC3OCCC23)cc1` (stereo not drawn) the EC50 was > 5000 nM. For `CC(C)CN(CC(O)C(Cc1ccc(OCP(=O)(O)O)cc1)NC(=O)OC1COC2OCCC12)S(=O)(=O)N1CCN(C)CC1` (stereo not drawn), the EC50 was > 5000 nM. With `CCOP(=O)(COc1ccc(CC(NC(=O)OC2COC3OCCC23)C(O)CN(CC(C)C)S(=O)(=O)c2ccc(OC)cc2)cc1)OCC` (stereo not drawn) [drawing 608 R1=OEt R2=OEt] the EC50 was < 50 nM. With `COc1ccc(S(=O)(=O)N(CC2CCN(C=O)CC2)CC(O)C(Cc2ccc(OCP(=O)(O)O)cc2)NC(=O)OC2COC3OCCC23)cc1` (stereo not drawn) the EC50 was > 5000 nM. For `COc1ccc(S(=O)(=O)N(CC(C)C)CC(O)C(Cc2ccc(OCP(=O)(OC)OC)cc2)NC(=O)OC2COC3OCCC23)cc1` (stereo not drawn) [drawing 608 R1=OMe R2=OMe], the EC50 was < 50 nM. For `CCOP(=O)(COc1ccc2c(c1)CN(CC(NC(=O)OC1COC3OCCC13)C(O)CN(CC(C)C)S(=O)(=O)c1ccc(OC)cc1)C2)OCC` (stereo not drawn), the EC50 was > 5000 nM. `CCOC(=O)C(CC(C)C)NP(=O)(COc1ccc(CC(NC(=O)OC2COC3OCCC23)C(O)CN(CC(C)C)S(=O)(=O)c2ccc(OC)cc2)cc1)NC(CC(C)C)C(=O)OCC` (stereo not drawn) [drawing 612 R1=Leu-Et R2=Leu-Et] was tested, and the EC50 was < 50 nM. With `CCCCOC(=O)C(C)NP(=O)(COc1ccc(CC(NC(=O)OC2COC3OCCC23)C(O)CN(CC(C)C)S(=O)(=O)c2ccc(OC)cc2)cc1)NC(C)C(=O)OCCCC` (stereo not drawn) [drawing 612 R1=Ala-Bu R2=Ala-Bu] the EC50 was < 50 nM. For `CCOP(=O)(COc1ccc(CC(NC(=O)OC2COC3OCCC23)C(O)CN(CC(C)C)S(=O)(=O)c2ccc(O)cc2)cc1)OCC` (stereo not drawn) [drawing 609 R1=Et R2=Et], the EC50 was < 50 nM. Compound `CCOC(=O)CNP(=O)(COc1ccc(CC(NC(=O)OC2COC3OCCC23)C(O)CN(CC(C)C)S(=O)(=O)c2ccc(OC)cc2)cc1)NCC(=O)OCC` (stereo not drawn) [drawing 612 R1=Gly-Et R2=Gly-Et] has an EC50 of 50 to 500 nM. With `COc1ccc(S(=O)(=O)N(CC(C)C)CC(O)C(Cc2ccc(OCP(=O)(OCC(F)(F)F)OCC(F)(F)F)cc2)NC(=O)OC2COC3OCCC23)cc1` (stereo not drawn) [drawing 608 R1=OCH2CF3 R2=OCH2CF3] the EC50 was > 5000 nM. With `COc1ccc(S(=O)(=O)N(CC(C)C)CC(O)C(Cc2ccc(OCP(=O)(OC(C)C)OC(C)C)cc2)NC(=O)OC2COC3OCCC23)cc1` (stereo not drawn) [drawing 608 R1=OiPr R2=OiPr] the EC50 was < 50 nM. `CC(C)CN(CC(O)C(Cc1ccc(OCP(=O)(O)O)cc1)NC(=O)OC1COC2OCCC12)S(=O)(=O)c1ccc(C(F)(F)F)cc1` (stereo not drawn) was tested, and the EC50 was 500 to 5000 nM. For `COc1ccc(S(=O)(=O)N(CC(C)C)CC(O)C(Cc2ccc(OCP(=O)(O)NC(C)C(=O)O)cc2)NC(=O)OC2COC3OCCC23)cc1` (stereo not drawn) [drawing 614 R1=OH R2=Ala-OH], the EC50 was > 5000 nM. `CCOP(=O)(COc1ccc(CC(NC(=O)OC2COC3OCCC23)C(O)CN(CC2CCN(C)CC2)S(=O)(=O)c2ccc(OC)cc2)cc1)OCC` (stereo not drawn) was tested, and the EC50 was > 5000 nM. For `CCCCOC(=O)CNP(=O)(COc1ccc(CC(NC(=O)OC2COC3OCCC23)C(O)CN(CC(C)C)S(=O)(=O)c2ccc(OC)cc2)cc1)NCC(=O)OCCCC` (stereo not drawn) [drawing 612 R1=Gly-Bu R2=Gly-Bu], the EC50 was < 50 nM. `CC(C)CN(CC(O)C(Cc1ccc(OCP(=O)(O)O)cc1)NC(=O)OC1COC2OCCC12)S(=O)(=O)c1ccccc1` (stereo not drawn) was tested, and the EC50 was > 5000 nM. In the case of `CC(C)CN(C[C@@H](O)[C@H](Cc1ccccc1)NC(=O)O[C@H]1CO[C@H]2OCC[C@H]21)S(=O)(=O)c1ccc(N)cc1` [TMC114, reference compound], the EC50 is reported as < 50 nM. With `CC(C)CN(CC(O)C(Cc1ccc(OCP(=O)(O)O)cc1)NC(=O)OC1COC2OCCC12)S(=O)(=O)c1ccc(F)cc1` (stereo not drawn) the EC50 was 500 to 5000 nM. `CC(C)CN(CC(O)C(Cc1ccc(OCP(=O)(O)O)cc1)NC(=O)OC1COC2OCCC12)S(=O)(=O)c1ccc(O)cc1` (stereo not drawn) [drawing 609 R1=OH R2=OH] gave an EC50 of 500 to 5000 nM. `CCOP(=O)(COc1ccc(CC(NC(=O)OC2COC3OCCC23)C(O)CN(CC2CCN(C=O)CC2)S(=O)(=O)c2ccc(OC)cc2)cc1)OCC` (stereo not drawn) was tested, and the EC50 was > 5000 nM. `CC(C)CN(CC(O)C(Cc1ccc(OCP(=O)(O)O)cc1)NC(=O)OC1COC2OCCC12)S(=O)(=O)c1ccc(OC(F)(F)F)cc1` (stereo not drawn) was tested, and the EC50 was 500 to 5000 nM. Compound `COc1ccc(S(=O)(=O)N(CC(C)C)CC(O)C(Cc2ccccc2)NC(=O)OC2COC3OCCC23)cc1OCP(=O)(OCc1ccccc1)OCc1ccccc1` (stereo not drawn) has an EC50 of 500 to 5000 nM. With `COc1ccc(S(=O)(=O)N(CC(C)C)CC(O)C(Cc2ccc(CNCCP(=O)(O)O)cc2)NC(=O)OC2COC3OCCC23)cc1` (stereo not drawn) [drawing 619 R1=H R2=H] the EC50 was > 5000 nM.

Same assay, conditions: Human immunodeficiency virus 1, IIIB, MT2, 120 h, read-out: Anti-HIV-1 Cell Culture Activity EC50
Compound `CCCCOC(=O)C(CC(C)C)NP(=O)(COc1ccc(CC(NC(=O)OC2COC3OCCC23)C(O)CN(CC(C)C)S(=O)(=O)c2ccc(OC)cc2)cc1)NC(CC(C)C)C(=O)OCCCC` (stereo not drawn) [Example 16h] has an EC50 of 120 ± 42 nM. With `CCCCOC(=O)C(CC)NP(=O)(COc1ccc(CC(NC(=O)OC2COC3OCCC23)C(O)CN(CC(C)C)S(=O)(=O)c2ccc(OC)cc2)cc1)NC(CC)C(=O)OCCCC` (stereo not drawn) [Example 16f] the EC50 was 4.8 ± 1.8 nM. `CCOC(=O)CNP(=O)(COc1ccc(CC(NC(=O)OC2COC3OCCC23)C(O)CN(CC(C)C)S(=O)(=O)c2ccc(OC)cc2)cc1)NCC(=O)OCC` (stereo not drawn) [Compound 16a] was tested, and the EC50 was 330 ± 230 nM.

Same assay, conditions: read-out: EC50
`CC(C)CN(CC(O)C(Cc1ccc(OCCN(C)C)cc1)NC(=O)OC1COC2OCCC12)S(=O)(=O)c1ccc(OCP(=O)(O)O)cc1` (stereo not drawn) [OC2H4NMe2, OH] gave an EC50 of 500 to 5000 nM. For `COc1ccc(S(=O)(=O)N(CC(C)C)C[C@@H](OP(=O)(O)O)[C@H](Cc2ccccc2)NC(=O)O[C@H]2CO[C@H]3OCC[C@H]32)cc1` [Phosphate prodrug of 94-003], the EC50 was < 50 nM. `COc1ccc(S(=O)(=O)N(CC(C)C)C[C@@H](O)[C@H](Cc2ccc(OCP(=O)(O)O)cc2)NC(=O)O[C@H]2CO[C@H]3OCC[C@H]32)cc1` [GS8373] showed an EC50 of 4800 nM. In the case of `CC(C)CN(CC(O)C(Cc1ccc(OCCN(C)C)cc1)NC(=O)OC1COC2OCCC12)S(=O)(=O)c1ccc(OCP(=O)(OCc2ccccc2)OCc2ccccc2)cc1` (stereo not drawn) [OC2H4-NMe2, OBn], the EC50 is reported as 50 to 500 nM. In the case of `CC(C)CN(C[C@@H](O)[C@H](Cc1ccc([N+](=O)[O-])cc1)NC(=O)O[C@H]1CO[C@H]2OCC[C@H]21)S(=O)(=O)c1ccc(OCP(=O)(Oc2ccccc2)Oc2ccccc2)cc1` [NO2, phenol], the EC50 is reported as < 50 nM. With `CC(C)CN(CC(O)C(Cc1ccc(O)cc1)NC(=O)OC1COC2OCCC12)S(=O)(=O)c1ccc(OCP(=O)(O)O)cc1` (stereo not drawn) [OH, OH] the EC50 was > 5000 nM. Compound `CC(C)CN(CC(O)C(Cc1ccc(O)cc1)NC(=O)OC1COC2OCCC12)S(=O)(=O)c1ccc(OCP(=O)(OCc2ccccc2)OCc2ccccc2)cc1` (stereo not drawn) [OH, OBn] has an EC50 of 50 to 500 nM. `CC(C)CN(C[C@@H](OP(=O)(O)O)[C@H](Cc1ccccc1)NC(=O)O[C@H]1CCOC1)S(=O)(=O)c1ccc(N)cc1` [Phosphate prodrug of ampenavir] showed an EC50 of 50 to 500 nM. Compound `CCOC(=O)C(CC)NP(=O)(COc1ccc(CC(NC(=O)OC2COC3OCCC23)C(O)CN(CC(C)C)S(=O)(=O)c2ccc(OC)cc2)cc1)Oc1ccccc1` (stereo not drawn) [Example 16576] has an EC50 of 12.6 ± 4.8 nM.

What follows are compounds tested on mutant HIV-1 I84V/L90M (assay: Resistance Evaluation, I84V/L90M fold change). Details: EC50 of mutant I84V/L90M relative to wild type; class symbols.
Format: cell-based
With `CCOP(=O)(CN1CC=C(CC(NC(=O)OC2COC3OCCC23)C(O)CN(CC(C)C)S(=O)(=O)c2ccc(OC)cc2)CC1)OCC` (stereo not drawn) the I84V/L90M fold change was “+ (>3 to ≦10)”. With `CCOP(=O)(Cc1ccc(N(C)CC(NC(=O)OC2COC3OCCC23)C(O)CN(CC(C)C)S(=O)(=O)c2ccc(OC)cc2)cc1)OCC` (stereo not drawn) the I84V/L90M fold change was “+ (>3 to ≦10)”. `COc1ccc(S(=O)(=O)N(CC(C)C)CC(O)C(CC2=CCN(CCP(=O)(OCc3ccccc3)OCc3ccccc3)CC2)NC(=O)OC2COC3OCCC23)cc1` (stereo not drawn) [drawing 630] was tested, and the I84V/L90M fold change was “+ (>3 to ≦10)”. In the case of `CCOP(=O)(Cc1ccc2c(c1)CCN(CC(NC(=O)OC1COC3OCCC13)C(O)CN(CC(C)C)S(=O)(=O)c1ccc(OC)cc1)C2)OCC` (stereo not drawn), the I84V/L90M fold change is reported as “+ (>3 to ≦10)”. For `CCOP(=O)(Cc1ccc(NCC(NC(=O)OC2COC3OCCC23)C(O)CN(CC(C)C)S(=O)(=O)c2ccc(OC)cc2)cc1)OCC` (stereo not drawn), the I84V/L90M fold change was “+ (>3 to ≦10)”. With `CCOP(=O)(CNc1ccc(CC(NC(=O)OC2COC3OCCC23)C(O)CN(CC(C)C)S(=O)(=O)c2ccc(OC)cc2)cc1)OCC` (stereo not drawn) the I84V/L90M fold change was “− (≦3)”. `COc1ccc(S(=O)(=O)N(CC(C)C)CC(O)C(Cc2ccc(NCP(=O)(OCc3ccccc3)OCc3ccccc3)cc2)NC(=O)OC2COC3OCCC23)cc1` (stereo not drawn) was tested, and the I84V/L90M fold change was “− (≦3)”.

Same assay, conditions: mutant I84V/L90M vs wild type
`CC(C)CN(CC(O)C(Cc1ccc(OCP(=O)(OCc2ccccc2)OCc2ccccc2)cc1)NC(=O)OC1COC2OCCC12)S(=O)(=O)c1ccc(C(F)(F)F)cc1` (stereo not drawn) was tested, and the I84V/L90M fold change was “− (≦3)”. In the case of `COc1ccc(S(=O)(=O)N(CCN2CCOCC2)CC(O)C(Cc2ccc(OCP(=O)(OCc3ccccc3)OCc3ccccc3)cc2)NC(=O)OC2COC3OCCC23)cc1` (stereo not drawn), the I84V/L90M fold change is reported as “+ (>3 to ≦10)”. In the case of `CCOP(=O)(COc1cc(S(=O)(=O)N(CC(C)C)CC(O)C(Cc2ccccc2)NC(=O)OC2COC3OCCC23)ccc1OC)OCC` (stereo not drawn), the I84V/L90M fold change is reported as “+ (>3 to ≦10)”. In the case of `CC(C)CN(CC(O)C(Cc1ccc(OCP(=O)(OCc2ccccc2)OCc2ccccc2)cc1)NC(=O)OC1COC2OCCC12)S(=O)(=O)c1ccccc1` (stereo not drawn), the I84V/L90M fold change is reported as “+ (>3 to ≦10)”. With `CCOP(=O)(COc1ccc(CC(NC(=O)OC2COC3OCCC23)C(O)CN(CC(C)C)S(=O)(=O)c2cccc(N)c2)cc1)OCC` (stereo not drawn) the I84V/L90M fold change was “− (≦3)”. In the case of `CCOP(=O)(COc1ccc(CC(NC(=O)OC2COC3OCCC23)C(O)CN(CC(C)C)S(=O)(=O)c2ccc([N+](=O)[O-])cc2)cc1)OCC` (stereo not drawn), the I84V/L90M fold change is reported as “− (≦3)”. For `CC(C)CN(CC(O)C(Cc1ccccc1)NC(=O)OC1COC2OCCC12)S(=O)(=O)c1ccc(O)cc1` (stereo not drawn), the I84V/L90M fold change was “− (≦3)”. With `CC(C)CN(CC(O)C(Cc1ccc(OCP(=O)(OCc2ccccc2)OCc2ccccc2)cc1)NC(=O)OC1COC2OCCC12)S(=O)(=O)c1ccc(N)cc1` (stereo not drawn) the I84V/L90M fold change was “− (≦3)”. In the case of `COc1ccc(S(=O)(=O)N(CC(C)C)CC(O)C(Cc2ccc(C)cc2)NC(=O)OC2COC3OCCC23)cc1` (stereo not drawn), the I84V/L90M fold change is reported as “+ (>3 to ≦10)”.

From patent US20040121316A1 (priority 2002, published 2004)
